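Tested at 5 concentrations; 48 h exposure; 96-well plates; endpoints linearly interpolated, else capped at highest concentration. Definition used: TGI = concentration required for complete inhibition of growth.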
Columns and labels:
Assay in all cases: DTP human tumour cell line panel, 48 h
T-47D breast = tested on: T-47D breast
SF-539 CNS = tested on: SF-539 CNS
SK-MEL-28 melanoma = tested on: SK-MEL-28 melanoma
UACC-257 melanoma = tested on: UACC-257 melanoma
HS 578T breast = tested on: HS 578T breast
ACHN renal = tested on: ACHN renal
TK-10 renal = tested on: TK-10 renal
RPMI-8226 leukemia = tested on: RPMI-8226 leukemia
NCI/ADR-RES ovarian = tested on: NCI/ADR-RES ovarian
HOP-92 NSCLC = tested on: HOP-92 NSCLC
HCC-2998 colon = tested on: HCC-2998 colon
HCT-15 colon = tested on: HCT-15 colon
SW-620 colon = tested on: SW-620 colon

SMILES	TGI (T-47D breast) [µM]	TGI (SF-539 CNS) [µM]	TGI (SK-MEL-28 melanoma) [µM]	TGI (UACC-257 melanoma) [µM]	TGI (HS 578T breast) [µM]	TGI (ACHN renal) [µM]	TGI (TK-10 renal) [µM]	TGI (RPMI-8226 leukemia) [µM]	TGI (NCI/ADR-RES ovarian) [µM]	TGI (HOP-92 NSCLC) [µM]	TGI (HCC-2998 colon) [µM]	TGI (HCT-15 colon) [µM]	TGI (SW-620 colon) [µM]
C[C@H]1[C@H](C)CC[C@]2(C(=O)OC3OC(CO)C(O)C(O)C3O)CC[C@]3(C)C(=CC[C@@H]4[C@@]5(C)C[C@@H](O)[C@@H]6OC(=O)c7cc(O)c(O)c(O)c7-c7c(cc(O)c(O)c7O)C(=O)OC[C@]6(CO)[C@@H]5CC[C@]43C)[C@H]12 (stereo partly specified)	> 100	> 100	> 100	> 100	> 100	> 100	> 100	> 100	> 100	> 100	> 100	> 100	> 63.3
NS(=O)(=O)c1nnc(NC(=O)/C=C/C(=O)O)s1	> 100	> 100	> 100	> 100	> 100	> 100	> 100	> 100	> 100	> 100	> 100	> 100	> 100
COC(=O)/C=C/c1cnc2c(c1)oc(=O)n2C	> 100	> 100	> 100	> 100	> 100	> 100	> 100	> 100	> 100	> 100	> 100	> 100	> 100
COC(=O)C1(Cc2ccc(C)cc2)Cc2c(C)cccc2C1=O (stereo unspecified)	72.1	34.5	> 100	91.3	46.9	76.9	86.2	40.6	80.9	43.9	42.2	75.9	> 100
CCSc1nc(C)nc2c1sc1nc3ccccc3n12	> 100	> 100	> 100	> 100	92.9	> 100	> 100	> 100	> 100	> 100	> 100	> 100	> 100
CNC(=O)OCC1=C(COC(=O)NC)C(C)N(c2ccccc2)C1 (stereo unspecified)	> 100	67.3	> 100	> 100	> 100	> 100	> 100	83	> 100	> 100	80.3	> 100	> 100
C=COC(=O)N1C2CCCC(Cl)(C(C)=O)C1CC2 (stereo unspecified)	> 100		> 100	> 100	> 100	> 100	> 100	> 100	> 100	> 100	> 100	> 100	> 100
Nc1ncnc2c1cnn2COCC(O)CO (stereo unspecified)	> 100	> 100	> 100	> 100	> 100	> 100	> 100	> 100	> 100	> 100	> 100	> 100	> 100
Nc1nc(Cl)c(C=O)c(NCC2(CO)CCC2)n1	> 100	> 100	> 100	> 100	67.9	> 100	> 100	> 100	> 100	31.1	22.9	25.3	> 100
C=CCN(c1cc(OC)c2c(c1[N+](=O)[O-])C(C)(SC)C(=O)N2)S(C)(=O)=O (stereo unspecified)	> 100	> 100	> 100	> 100	> 100	> 100	> 100	> 100	> 100	> 100	> 100	> 100	> 100
COc1ccc(Br)c(C=Nc2cccc3cc(OC)c(OC)cc23)c1	> 100	12.4	> 100	> 100	57.1	> 73.8	71.6	> 46.3	> 77.8	79.5	> 100	16.4	51.1
Cn1c(O)c(C=Nc2ccc(Cl)cc2Cl)c(=O)n(C)c1=O	> 100	> 100		> 100	> 100	> 100	> 100	> 100	> 100	> 100	> 100	> 100	> 100
CCNC1=C(NC(=O)CCl)C(=O)c2ccccc2C1=O	44.7	44.5	31.7	> 10	60.6	31.9	31.5	> 100	44	36.2	> 10	33.6	74.6
CC1(C)CC[C@]2(C(=O)O)CC[C@]3(C)C(=CC[C@@H]4[C@@]5(C)CC[C@H](OC6OC(CO)C(O)C(O)C6O)C(C)(C)[C@@H]5CC[C@]43C)[C@@H]2C1 (stereo partly specified)	3.55		3.69	3.13	4.74	3.04		6.08	22.9	3.06	3.18	10.7	3.51
S=C(S)N1CCN(c2ccccc2)CC1	> 100	> 100	> 100	> 100	> 100	> 100	> 100	77.3	> 100	> 100	> 100	> 100	> 100
N#CC1=C(S)N(C2OC(CO)C(O)C(O)C2O)C(c2ccccc2)=CC1c1cccs1 (stereo unspecified)	65.7	38.7	41.4	40.8	67	40.8	48.2	> 100	> 100	68.8	44.8	> 100	65
O=C1c2cc([N+](=O)[O-])sc2C(=O)c2cc([N+](=O)[O-])sc21	10.8	8.51	8.3	11.8	35	10.1	13		11.3	4.04	8.56	3.55	3.37
